Consider three molecules from patent US8435756B2, “Anionic acid-labile surfactants and methods of use” (Protea Biosciences, Inc., priority 2008, dated 2013).

For one data set, the target named is BSA (Bos taurus, UniProt P02769). In words: Protein score from in-solution tryptic digestion of BSA (MALDI-TOF, peptide mass fingerprinting). To be noted: tryptic digestion of 250 pmol BSA, 0.05% AALS-6 in digestion buffer; FIG. 2. Here is the method: Protein scores from in-solution digestion of BSA in buffers containing an embodiment of an anionic acid-labile surfactant (“AALS-6”) and three commercially available acid labile surfactants are illustrated in FIG. 2. A tryptic digestion of 250 pmol BSA is performed using 0.05% AALS-6 in digestion buffer. For the other surfactants, digestion is performed according to the manufacturer's protocols. Sample clean-up and MALDI spotting is performed using C18 reversed phase tips. MALDI-TOF spectra are acquired using an ABI 4800 mass spectrometer in the reflector mode. Protein identification is accomplished through peptide mass fingerprinting (PMF) of the acquired MS spectra.
Chain of BSA (P02769 25-607): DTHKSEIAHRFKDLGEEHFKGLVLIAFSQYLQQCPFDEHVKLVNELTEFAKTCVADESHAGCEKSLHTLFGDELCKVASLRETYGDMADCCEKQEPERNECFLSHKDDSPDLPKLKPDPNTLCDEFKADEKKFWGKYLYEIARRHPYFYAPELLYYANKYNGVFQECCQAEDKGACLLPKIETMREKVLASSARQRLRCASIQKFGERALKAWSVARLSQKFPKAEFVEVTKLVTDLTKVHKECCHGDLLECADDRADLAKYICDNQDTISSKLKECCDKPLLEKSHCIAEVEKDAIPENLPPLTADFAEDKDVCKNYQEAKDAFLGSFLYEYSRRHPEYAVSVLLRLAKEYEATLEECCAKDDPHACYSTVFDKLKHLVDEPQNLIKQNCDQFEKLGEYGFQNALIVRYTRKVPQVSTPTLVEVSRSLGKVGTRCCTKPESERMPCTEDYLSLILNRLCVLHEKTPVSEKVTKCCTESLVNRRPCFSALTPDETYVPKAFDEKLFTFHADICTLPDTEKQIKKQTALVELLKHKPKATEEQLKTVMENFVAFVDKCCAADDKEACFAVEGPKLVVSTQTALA
Algorithms that compare mass spectrometric data to database for protein identification compare the experimental tandem mass spectra against theoretical mass spectra from all peptides and proteins present in the databases. As an output for the database correlation analysis, a protein identification score is generated for each potential protein match. Protein matches are required to have a minimum protein score to be considered a potential positive and significant protein identification. The higher the score, the more likely that the protein identification is real and not a result of random events that match the database. […]

The target in the next data set is T1, ovalbumin (Gallus gallus, UniProt P01012).
T1 sequence (P01012 1-386): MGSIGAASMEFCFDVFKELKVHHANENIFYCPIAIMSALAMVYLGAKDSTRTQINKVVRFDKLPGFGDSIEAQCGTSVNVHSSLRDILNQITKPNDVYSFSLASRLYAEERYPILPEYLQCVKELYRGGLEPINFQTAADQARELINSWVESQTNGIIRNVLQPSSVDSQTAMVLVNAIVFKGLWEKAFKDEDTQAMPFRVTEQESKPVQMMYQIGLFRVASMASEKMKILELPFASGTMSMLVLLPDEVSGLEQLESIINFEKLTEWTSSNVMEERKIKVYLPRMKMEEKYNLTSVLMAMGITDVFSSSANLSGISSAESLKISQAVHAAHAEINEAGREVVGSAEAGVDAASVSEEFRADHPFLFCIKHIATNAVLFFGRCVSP
The experiment in a line: Protein score from in-solution tryptic digestion of ovalbumin (MALDI-TOF MS/MS, Mascot). To be noted: tryptic digestion of 250 μmol ovalbumin; 0.05% AALS-6, other surfactants per manufacturer's protocols; FIG. 3. Here is the method: The protein scores from in-solution digestion of ovalbumin in buffers containing an embodiment of an anionic acid-labile surfactant (“AALS-6”) and three commercially available acid labile surfactants are illustrated in FIG. 3. A tryptic digestion of […] ovalbumin was performed using 0.05% AALS-6 in digestion buffer. For the other surfactants, digestion was performed according to the manufacturer's protocols. Sample clean-up and MALDI spotting was performed using C18 reversed phase tips. MALDI-TOF MS and MS/MS spectra were acquired using an ABI 4800 mass spectrometer in the reflector mode. Protein identification was accomplished through database searching MS/MS spectra using Mascot search engine.
The ovalbumin control digestion score is 347. In general, the higher protein score indicates an increase in the quality and/or completeness of the digestion because more peptides are available for analysis by the mass spectrometer, and/or the quality of the digested sample delivered to the mass spectrometer is increased. […] The higher protein score of AALS-6 may also be due to its degradation kinetics. For example, once the digestion experiment is complete, the degradation of the surfactant reduces contamination of the signal by detergent molecules and by-products as well as reduces the ion suppression effects commonly seen in mass spectrometry analysis of peptides and proteins.

A short description of data set [1]: Critical micellular concentration. Format: physicochemical.

Molecules are shown by their SMILES.

With `CCCCCCOC(C)(COS(=O)(=O)[O-])OCCCCCC.[Na+]` [AALS-6, sodium 2,2-bis(hexyloxy)propyl sulfate], the average protein score on BSA amounted to 93; on ovalbumin, 487. This molecule also came in with a critical micellular concentration in data set [1] of 7.7 mM. Consider `CCCCCCCCCCC(OC(=O)NCCCS(=O)(=O)[O-])c1ccco1.[Na+]` (centres unmarked) [Proteamax], for which, on ovalbumin, the average protein score was found to be 329. The same measure, in the same setting: the value for `CCCCCCCCCCCC1(C)OCC(COCCCS(=O)(=O)[O-])O1.[Na+]` (centres unmarked) [Rapigest] was 341.
